# Source: PMC3366976, “Tuning the Drug Efflux Activity of an ABC Transporter in vivo by in vitro Selected DARPin Binders” (PLoS ONE, 2012)
# Biological target: T1, LmrCD (Lactococcus cremoris, UniProt A2RI37+A2RI38, A2RI37:C179R)
# T1 construct: gene lmrC
# Experiment: biochemical
# T1 sequence (A2RI37 entry or part of it C179R): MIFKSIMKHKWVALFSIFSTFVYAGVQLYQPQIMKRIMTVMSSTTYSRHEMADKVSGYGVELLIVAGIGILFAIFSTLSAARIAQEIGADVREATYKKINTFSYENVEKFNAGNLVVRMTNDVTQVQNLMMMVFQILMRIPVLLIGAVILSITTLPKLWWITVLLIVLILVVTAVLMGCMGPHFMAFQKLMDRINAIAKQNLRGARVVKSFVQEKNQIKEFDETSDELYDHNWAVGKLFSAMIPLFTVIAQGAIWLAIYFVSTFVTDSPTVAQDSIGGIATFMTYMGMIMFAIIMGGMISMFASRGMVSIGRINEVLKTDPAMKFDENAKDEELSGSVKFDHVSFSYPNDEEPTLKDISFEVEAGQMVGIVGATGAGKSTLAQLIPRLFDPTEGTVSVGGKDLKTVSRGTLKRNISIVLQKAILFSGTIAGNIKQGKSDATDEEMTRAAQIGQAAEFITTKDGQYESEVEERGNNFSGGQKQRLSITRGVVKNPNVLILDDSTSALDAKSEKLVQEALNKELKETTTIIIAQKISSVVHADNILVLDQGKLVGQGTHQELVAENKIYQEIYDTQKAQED
# T1 sequence (A2RI38 entry or part of it): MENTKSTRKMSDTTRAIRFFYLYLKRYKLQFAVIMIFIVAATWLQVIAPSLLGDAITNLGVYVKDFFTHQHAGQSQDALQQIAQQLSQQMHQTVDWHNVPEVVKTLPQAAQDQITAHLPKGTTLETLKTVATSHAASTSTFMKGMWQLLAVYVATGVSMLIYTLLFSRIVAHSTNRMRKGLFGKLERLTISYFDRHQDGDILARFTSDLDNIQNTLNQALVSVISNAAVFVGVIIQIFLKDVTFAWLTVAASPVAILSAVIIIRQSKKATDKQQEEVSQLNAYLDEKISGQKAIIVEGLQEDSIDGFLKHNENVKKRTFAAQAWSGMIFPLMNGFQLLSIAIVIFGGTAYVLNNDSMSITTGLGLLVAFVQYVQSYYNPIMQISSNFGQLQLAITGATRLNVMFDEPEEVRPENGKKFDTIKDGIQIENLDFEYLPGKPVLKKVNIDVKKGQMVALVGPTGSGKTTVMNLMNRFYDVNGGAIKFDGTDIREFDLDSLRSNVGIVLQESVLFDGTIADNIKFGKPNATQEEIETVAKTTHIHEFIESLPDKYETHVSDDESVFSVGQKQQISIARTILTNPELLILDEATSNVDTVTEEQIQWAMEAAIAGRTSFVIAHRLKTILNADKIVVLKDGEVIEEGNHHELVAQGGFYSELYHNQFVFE
smiles,measurement,value
[O]=[V]([OH])([OH])[OH] [orthovanadate],IC50,120 µM
